Measurements reported in US10717733B2, “Haloallylamine indole and azaindole derivative inhibitors of lysyl oxidases and uses thereof” (PHARMAXIS LTD., priority 2016, dated 2020).
Where a name gives a salt, the structure may show the parent alone.

Assays:
Format in all cases: biochemical
Human LOXL2 = Human LOXL2 (Homo sapiens (Human), UniProt Q9Y4K0); assay: LOXL2 inhibition, peroxidase-coupled Amplex Red amine oxidase assay; details: 30 min preincubation at 37° C., putrescine substrate
Procedure, shortened: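 Enzyme in 1.2 M urea, 50 mM sodium borate pH 8.2 with 1 μM mofegiline and 0.5 mM pargyline, preincubated 30 min at 37° C with compound (11-point CRC). Putrescine at twice KM (10 mM for LOXL2) with Amplex Red/HRP; fluorescence (ex 565, em 590) read kinetically 30 min; IC50 from slopes.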

Bovine LOX = Bovine LOX (Bos taurus (Bovine), UniProt P33072); assay: LOX inhibition, peroxidase-coupled Amplex Red amine oxidase assay; details: 30 min preincubation at 37° C., putrescine substrate
Procedure, shortened: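 Bovine LOX in 1.2 M urea, 50 mM sodium borate pH 8.2 with 1 μM mofegiline and 0.5 mM pargyline; putrescine at twice KM (e.g. 20 mM for LOX) with Amplex Red/HRP. Fluorescence (ex 565/em 590 nm) read kinetically over 30 min at 37–45 °C; IC50 from slopes.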

[1] = target: human recombinant SSAO/VAP-1 (Homo sapiens (Human), UniProt Q16853); assay: Inhibition of human recombinant SSAO/VAP-1 amine oxidase activity; details: 30 min preincubation at 37° C., 600 μM benzylamine
Procedure, shortened: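 Purified SSAO/VAP-1 (residues 34-763, expressed in CHO Lec 8 cells; 0.25 μg/mL) preincubated 30 min at 37° C with compound in 0.1 M sodium phosphate pH 7.4. Reaction mix of 600 μM benzylamine, 120 μM Amplex Red and 1.5 U/mL HRP added; fluorescence (ex 565/em 590 nm) read every 2.5 min for 30 min; IC50 from kinetic slopes over 4-11 point curves.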

Recombinant human MAO-B = Recombinant human MAO-B (Homo sapiens (Human), UniProt P27338); assay: Inhibition of human recombinant MAO-B; details: benzylamine 100 μM
Procedure, shortened: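 Recombinant human MAO-B used as enzyme source (0.06 mg/mL, stated concentration). Run as for the human SSAO/VAP-1 assay, except benzylamine substrate at 100 μM.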

Chain of Human LOXL2 (Q9Y4K0 26-774): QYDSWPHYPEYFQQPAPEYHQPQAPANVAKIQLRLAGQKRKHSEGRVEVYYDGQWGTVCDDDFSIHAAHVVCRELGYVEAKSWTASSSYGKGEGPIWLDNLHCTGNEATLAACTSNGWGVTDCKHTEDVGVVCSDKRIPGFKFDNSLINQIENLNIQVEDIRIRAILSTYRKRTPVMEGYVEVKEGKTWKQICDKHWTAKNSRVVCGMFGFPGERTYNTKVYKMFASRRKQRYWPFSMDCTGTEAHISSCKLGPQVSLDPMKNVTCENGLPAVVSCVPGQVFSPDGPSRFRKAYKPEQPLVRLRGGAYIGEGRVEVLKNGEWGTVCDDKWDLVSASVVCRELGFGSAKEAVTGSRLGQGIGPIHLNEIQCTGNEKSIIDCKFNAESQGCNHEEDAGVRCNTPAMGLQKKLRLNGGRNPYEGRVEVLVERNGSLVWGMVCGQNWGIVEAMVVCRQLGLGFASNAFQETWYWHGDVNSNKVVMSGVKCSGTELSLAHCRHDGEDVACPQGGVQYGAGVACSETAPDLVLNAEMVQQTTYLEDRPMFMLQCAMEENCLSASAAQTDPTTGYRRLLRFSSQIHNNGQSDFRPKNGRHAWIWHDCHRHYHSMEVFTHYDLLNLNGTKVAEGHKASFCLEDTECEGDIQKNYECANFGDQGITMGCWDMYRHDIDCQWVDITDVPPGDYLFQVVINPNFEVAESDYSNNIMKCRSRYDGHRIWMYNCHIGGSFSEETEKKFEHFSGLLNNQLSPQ
Chain of Recombinant human MAO-B (P27338 whole entry): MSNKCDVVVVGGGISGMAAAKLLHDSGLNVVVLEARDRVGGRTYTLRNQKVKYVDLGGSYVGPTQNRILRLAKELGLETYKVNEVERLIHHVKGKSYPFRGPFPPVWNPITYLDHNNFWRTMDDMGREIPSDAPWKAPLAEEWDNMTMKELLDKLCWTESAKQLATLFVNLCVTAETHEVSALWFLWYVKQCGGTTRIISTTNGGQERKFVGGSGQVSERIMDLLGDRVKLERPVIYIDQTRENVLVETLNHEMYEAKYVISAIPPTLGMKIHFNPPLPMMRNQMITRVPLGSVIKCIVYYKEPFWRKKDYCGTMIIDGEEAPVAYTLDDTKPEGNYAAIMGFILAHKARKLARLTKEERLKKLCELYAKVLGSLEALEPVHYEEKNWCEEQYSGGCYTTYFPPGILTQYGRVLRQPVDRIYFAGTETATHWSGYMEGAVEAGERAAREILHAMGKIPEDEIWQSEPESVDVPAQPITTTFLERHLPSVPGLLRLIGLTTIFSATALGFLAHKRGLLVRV
Chain of Bovine LOX (P33072 170-418): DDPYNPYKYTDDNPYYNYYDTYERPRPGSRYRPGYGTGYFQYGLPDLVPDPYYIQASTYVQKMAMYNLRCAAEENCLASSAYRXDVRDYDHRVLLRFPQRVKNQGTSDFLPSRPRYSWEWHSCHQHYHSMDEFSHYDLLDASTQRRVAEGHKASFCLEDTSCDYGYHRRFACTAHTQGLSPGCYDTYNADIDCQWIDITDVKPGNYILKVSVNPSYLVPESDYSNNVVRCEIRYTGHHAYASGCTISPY
Chain of human recombinant SSAO/VAP-1 (Q16853 34-763): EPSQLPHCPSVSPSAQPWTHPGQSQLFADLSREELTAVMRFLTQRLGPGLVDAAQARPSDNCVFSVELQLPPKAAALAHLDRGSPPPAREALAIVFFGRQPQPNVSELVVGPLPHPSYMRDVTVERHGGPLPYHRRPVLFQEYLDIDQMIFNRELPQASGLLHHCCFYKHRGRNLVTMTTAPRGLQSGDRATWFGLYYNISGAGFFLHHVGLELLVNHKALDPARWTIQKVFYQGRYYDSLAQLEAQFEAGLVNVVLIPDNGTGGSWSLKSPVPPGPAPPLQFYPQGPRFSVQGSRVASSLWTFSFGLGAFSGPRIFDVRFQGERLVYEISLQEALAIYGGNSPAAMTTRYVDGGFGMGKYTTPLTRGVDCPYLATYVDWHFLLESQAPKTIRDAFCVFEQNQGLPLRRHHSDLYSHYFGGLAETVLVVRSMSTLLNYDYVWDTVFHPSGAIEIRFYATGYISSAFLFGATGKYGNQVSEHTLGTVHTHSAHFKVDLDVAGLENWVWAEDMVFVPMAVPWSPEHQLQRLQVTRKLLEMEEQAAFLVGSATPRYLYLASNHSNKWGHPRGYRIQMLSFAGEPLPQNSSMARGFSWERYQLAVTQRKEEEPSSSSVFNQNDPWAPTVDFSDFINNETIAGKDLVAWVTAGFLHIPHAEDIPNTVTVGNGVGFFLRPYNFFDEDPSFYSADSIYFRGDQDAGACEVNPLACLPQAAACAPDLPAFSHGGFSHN

SMILES: Cc1c(-c2cccc(S(=O)(=O)N(C)C)c2)c2cc(O)ccc2n1C/C(F)=C/CN [Compound 37, (Z)-3-(1-(4-amino-2-fluorobut-2-en-1-yl)-5-hydroxy-2-methyl-1H-indol-3-yl)-N,N-dimethylbenzenesulfonamide]
- IC50 (Human LOXL2): < 300 nM
- IC50 (Bovine LOX): > 300 nM
- IC50 [1]: > 3000 nM
- IC50 (Recombinant human MAO-B): > 3000 nM

SMILES: Cc1c(-c2cccc(N(C)S(C)(=O)=O)c2)c2cc(C(=O)O)ccc2n1C/C(F)=C/CN [Compound 38, (Z)-1-(4-amino-2-fluorobut-2-en-1-yl)-2-methyl-3-(3-(N-methylmethylsulfonamido)phenyl)-1H-indole-5-carboxylic acid]
- IC50 (Human LOXL2): < 300 nM
- IC50 (Bovine LOX): > 300 nM
- IC50 [1]: > 3000 nM
- IC50 (Recombinant human MAO-B): > 3000 nM

SMILES: Cc1c(-c2cccc(N(C)S(C)(=O)=O)c2)c2cc(C(=O)N(C)C)ccc2n1C/C(F)=C/CN [Compound 39, (Z)-1-(4-amino-2-fluorobut-2-en-1-yl)-N,N,2-trimethyl-3-(3-(N-methylmethylsulfonamido)phenyl)-1H-indole-5-carboxamide]
- IC50 (Human LOXL2): < 300 nM
- IC50 (Bovine LOX): > 300 nM
- IC50 [1]: > 3000 nM
- IC50 (Recombinant human MAO-B): > 3000 nM

SMILES: Cc1c(-c2cncc(S(=O)(=O)N(C)C)c2)c2cc(C(=O)O)ccc2n1C/C(F)=C/CN [Compound 40, (Z)-1-(4-amino-2-fluorobut-2-en-1-yl)-3-(5-(N,N-dimethylsulfamoyl)pyridin-3-yl)-2-methyl-1H-indole-5-carboxylic acid]
- IC50 (Human LOXL2): < 300 nM
- IC50 (Bovine LOX): > 300 nM
- IC50 [1]: > 3000 nM
- IC50 (Recombinant human MAO-B): > 3000 nM

SMILES: Cc1c(-c2cncc(S(=O)(=O)N(C)C)c2)c2cc(C(=O)N(C)C)ccc2n1C/C(F)=C/CN [Compound 41, (Z)-1-(4-amino-2-fluorobut-2-en-1-yl)-3-(5-(N,N-dimethylsulfamoyl)pyridin-3-yl)-N,N,2-trimethyl-1H-indole-5-carboxamide]
- IC50 (Human LOXL2): < 300 nM
- IC50 (Bovine LOX): > 300 nM
- IC50 [1]: > 3000 nM
- IC50 (Recombinant human MAO-B): > 3000 nM

SMILES: CCOC(=O)c1ccc2c(n1)c(-c1cccc(S(=O)(=O)N(C)C)c1)c(C)n2C/C(F)=C/CN [Compound 42, (Z)-ethyl 1-(4-amino-2-fluorobut-2-en-1-yl)-3-(3-(N,N-dimethylsulfamoyl)phenyl-2-methyl-1H-pyrrolo[3,2-b]pyridine-5-carboxylate, Dihydrochloride]
- IC50 (Human LOXL2): < 300 nM
- IC50 (Bovine LOX): > 300 nM
- IC50 [1]: > 3000 nM
- IC50 (Recombinant human MAO-B): > 3000 nM

SMILES: Cc1c(-c2cccc(S(=O)(=O)N(C)C)c2)c2nc(C(=O)O)ccc2n1C/C(F)=C/CN [Compound 43, (Z)-1-(4-amino-2-fluorobut-2-en-1-yl)-3-(3-(N,N-dimethylsulfamoyl)phenyl)-2-methyl-1H-pyrrolo[3,2-b]pyridine-5-carboxylic acid]
- IC50 (Human LOXL2): < 300 nM
- IC50 (Bovine LOX): > 300 nM
- IC50 [1]: > 3000 nM
- IC50 (Recombinant human MAO-B): > 3000 nM

SMILES: Cc1c(-c2cccc(S(=O)(=O)N(C)C)c2)c2nc(C(=O)N(C)C)ccc2n1C/C(F)=C/CN [Compound 44, (Z)-1-(4-amino-2-fluorobut-2-en-1-yl)-3-(3-(N,N-dimethylsulfamoyl)phenyl)-N,N,2-trimethyl-1H-pyrrolo[3,2-b]pyridine-5-carboxamide]
- IC50 (Human LOXL2): < 300 nM
- IC50 (Bovine LOX): > 300 nM
- IC50 [1]: > 3000 nM
- IC50 (Recombinant human MAO-B): > 3000 nM

SMILES: Cc1c(-c2cccc(S(=O)(=O)N(C)C)c2)c2nc(C(=O)NC(C)C)ccc2n1C/C(F)=C/CN [Compound 45, (Z)-1-(4-amino-2-fluorobut-2-en-1-yl)-3-(3-(N,N-dimethylsulfamoyl)phenyl)-N-isopropyl-2-methyl-1H-pyrrolo[3,2-b]pyridine-5-carboxamide]
- IC50 (Human LOXL2): < 300 nM
- IC50 (Bovine LOX): > 300 nM
- IC50 [1]: > 3000 nM
- IC50 (Recombinant human MAO-B): > 3000 nM

SMILES: CNC(=O)c1ccc2c(n1)c(-c1cccc(S(=O)(=O)N(C)C)c1)c(C)n2C/C(F)=C/CN [Compound 46, (Z)-1-(4-amino-2-fluorobut-2-en-1-yl)-3-(3-(N,N-dimethylsulfamoyl)phenyl)-N,2-dimethyl-1H-pyrrolo[3,2-b]pyridine-5-carboxamide]
- IC50 (Human LOXL2): < 300 nM
- IC50 (Bovine LOX): > 300 nM
- IC50 [1]: > 3000 nM
- IC50 (Recombinant human MAO-B): > 3000 nM

SMILES: Cc1c(-c2cccc(S(=O)(=O)N(C)C)c2)c2cccc(C(=O)N(C)C)c2n1C/C(F)=C/CN [Compound 47, (Z)-1-(4-amino-2-fluorobut-2-en-1-yl)-3-(3-(N,N-dimethylsulfamoyl)phenyl)-N,N,2-trimethyl-1H-indole-7-carboxamide]
- IC50 (Human LOXL2): < 300 nM
- IC50 (Bovine LOX): > 300 nM
- IC50 [1]: > 3000 nM
- IC50 (Recombinant human MAO-B): > 3000 nM

SMILES: Cc1c(-c2cccc(S(=O)(=O)N(C)C)c2)c2cccc(C(=O)O)c2n1C/C(F)=C/CN [Compound 48, (Z)-1-(4-amino-2-fluorobut-2-en-1-yl)-3-(3-(N,N-dimethylsulfamoyl)phenyl)-2-methyl-1H-indole-7-carboxylic acid]
- IC50 (Human LOXL2): < 300 nM
- IC50 (Bovine LOX): > 300 nM
- IC50 [1]: > 3000 nM
- IC50 (Recombinant human MAO-B): > 3000 nM

SMILES: COc1ccc2c(c1)c(-c1cccc(S(=O)(=O)N(C)C)c1)c(C)n2C/C(F)=C/CN [Compound 49, (Z)-3-(1-(4-amino-2-fluorobut-2-en-1-yl)-5-methoxy-2-methyl-1H-indol-3-yl)-N,N-dimethylbenzenesulfonamide]
- IC50 (Human LOXL2): < 300 nM
- IC50 (Bovine LOX): > 300 nM
- IC50 [1]: > 3000 nM
- IC50 (Recombinant human MAO-B): > 3000 nM

SMILES: Cc1c(-c2cccc(S(C)(=O)=O)c2)c2cc(C(=O)N(C)C)ccc2n1C/C(F)=C/CN [Compound 50, (Z)-1-(4-amino-2-fluorobut-2-en-1-yl)-N,N,2-trimethyl-3-(3-(methylsulfonyl)phenyl)-1H-indole-5-carboxamide]
- IC50 (Human LOXL2): < 300 nM
- IC50 (Bovine LOX): > 300 nM
- IC50 [1]: > 3000 nM
- IC50 (Recombinant human MAO-B): > 3000 nM

SMILES: Cc1c(-c2cccc(S(=O)(=O)N(C)C)c2)c2cc(C#N)ccc2n1C/C(F)=C/CN [Compound 51, (Z)-3-(1-(4-amino-2-fluorobut-2-en-1-yl)-5-cyano-2-methyl-1H-indol-3-yl)-N,N-dimethylbenzenesulfonamide]
- IC50 (Human LOXL2): < 300 nM
- IC50 (Bovine LOX): > 300 nM
- IC50 [1]: > 3000 nM
- IC50 (Recombinant human MAO-B): > 3000 nM

SMILES: Cc1c(-c2cccc(S(N)(=O)=O)c2)c2cc(C(=O)N(C)C)ccc2n1C/C(F)=C/CN [Compound 54, (Z)-1-(4-amino-2-fluorobut-2-en-1-yl)-N,N,2-trimethyl-3-(3-sulfamoylphenyl)-1H-indole-5-carboxamide]
- IC50 (Human LOXL2): < 300 nM
- IC50 (Bovine LOX): > 300 nM
- IC50 [1]: > 3000 nM
- IC50 (Recombinant human MAO-B): > 3000 nM

SMILES: Cc1c(-c2cccc(S(=O)(=O)N(C)C)c2)c2cc(-c3ncon3)ccc2n1C/C(F)=C/CN [Compound 55, (Z)-3-(1-(4-amino-2-fluorobut-2-en-1-yl)-2-methyl-5-(1,2,4-oxadiazol-3-yl)-1H-indol-3-yl)-N,N-dimethylbenzenesulfonamide]
- IC50 (Human LOXL2): < 300 nM
- IC50 (Bovine LOX): > 300 nM
- IC50 [1]: > 3000 nM
- IC50 (Recombinant human MAO-B): > 3000 nM

SMILES: Cc1c(-c2cccc(C(F)(F)F)c2)c2cc(C(=O)N(C)C)ccc2n1C/C(F)=C/CN [Compound 56, (Z)-1-(4-amino-2-fluorobut-2-en-1-yl)-N,N,2-trimethyl-3-(3-(trifluoromethyl)phenyl)-1H-indole-5-carboxamide]
- IC50 (Human LOXL2): < 300 nM
- IC50 (Bovine LOX): > 300 nM
- IC50 [1]: > 3000 nM
- IC50 (Recombinant human MAO-B): > 3000 nM

SMILES: Cc1c(-c2cccc(S(=O)(=O)C(F)(F)F)c2)c2cc(C(=O)N(C)C)ccc2n1C/C(F)=C/CN [Compound 57, (Z)-1-(4-amino-2-fluorobut-2-en-1-yl)-N,N,2-trimethyl-3-(3-((trifluoromethyl)sulfonyl)phenyl)-1H-indole-5-carboxamide]
- IC50 (Human LOXL2): < 300 nM
- IC50 (Bovine LOX): > 300 nM
- IC50 [1]: > 3000 nM
- IC50 (Recombinant human MAO-B): > 3000 nM

SMILES: Cc1c(-c2cccc(S(=O)(=O)N(C)C)c2)c2cc(S(=O)(=O)N(C)C)ccc2n1C/C(F)=C/CN [Compound 58, (Z)-1-(4-amino-2-fluorobut-2-en-1-yl)-3-(3-(N,N-dimethylsulfamoyl)phenyl)-N,N,2-trimethyl-1H-indole-5-sulfonamide]
- IC50 (Human LOXL2): < 300 nM
- IC50 (Bovine LOX): > 300 nM
- IC50 [1]: > 3000 nM
- IC50 (Recombinant human MAO-B): > 3000 nM

SMILES: Cc1c(-c2cccc(S(=O)(=O)N(C)C)c2)c2cc(C(F)F)ccc2n1C/C(F)=C/CN [Compound 59, (Z)-3-(1-(4-amino-2-fluorobut-2-en-1-yl)-5-(difluoromethyl)-2-methyl-1H-indol-3-yl)-N,N-dimethylbenzene-sulfonamide]
- IC50 (Human LOXL2): < 300 nM
- IC50 (Bovine LOX): > 300 nM
- IC50 [1]: > 3000 nM
- IC50 (Recombinant human MAO-B): > 3000 nM

SMILES: Cc1c(-c2cccc(S(=O)(=O)N(C)C)c2)c2nc(O)ccc2n1C/C(F)=C/CN [Compound 60, (Z)-3-(1-(4-amino-2-fluorobut-2-en-1-yl)-5-hydroxy-2-methyl-1H-pyrrolo[3,2-b]pyridin-3-yl)-N,N-dimethylbenzenesulfonamide Hydrochloride]
- IC50 (Human LOXL2): < 300 nM
- IC50 (Bovine LOX): > 300 nM
- IC50 [1]: > 3000 nM
- IC50 (Recombinant human MAO-B): > 3000 nM

SMILES: COc1ccc2c(n1)c(-c1cccc(S(=O)(=O)N(C)C)c1)c(C)n2C/C(F)=C/CN [Compound 61, (Z)-3-(1-(4-amino-2-fluorobut-2-en-1-yl)-5-methoxy-2-methyl-1H-pyrrolo[3,2-b]pyridin-3-yl)-N,N-dimethylbenzenesulfonamide Dihydrochloride]
- IC50 (Human LOXL2): < 300 nM
- IC50 (Bovine LOX): > 300 nM
- IC50 [1]: > 3000 nM
- IC50 (Recombinant human MAO-B): > 3000 nM
